Results on five molecules are retold here after patent US9980943B2, “Methods of treating muscular dystrophy” (BOARD OF REGENTS OF THE NEVADA SYSTEM OF HIGHER EDUCATION, …, priority 2013, dated 2018).

Common to all, as to type: cell-based, mouse
Experiment [1] relates to β-galactosidase in CMV-LacZ C2C12 myotubes. Put plainly: CMV-LacZ secondary screen in C2C12 myotubes (β-Gal stabilizing assay). The settings on record: C2C12 CMV-LacZ myotubes, fold relative to DMSO. Put shortly: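 A secondary screen identifies compounds that stabilize β-gal independently of the native promoter, using CMV-LacZ C2C12 cells. Curves span 0.5–40 μM at six levels, in duplicate.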

Experiment [2] concerns α7 integrin (LacZ reporter in α7+/LacZ myotubes). Put plainly: Myotube α7 integrin FDG assay (Burkin assay in myotubes, 96-well). To be noted: myotubes.
The test system of experiment [3] is α7 integrin (LacZ reporter in α7βgal+/− myoblasts). Put plainly: Myoblast α7+/LacZ integrin FDG assay (Burkin assay in myoblasts, 96-well). To be noted: α7+/LacZ myoblasts, 96-well.
The test system of experiment [4] is β-galactosidase in CMV-LacZ C2C12 myoblasts. Put plainly: CMV-LacZ secondary screen in C2C12 myoblasts (β-Gal stabilizing assay). The settings on record: CMV-LacZ C2C12 myoblasts. In short, it runs like this: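 β-gal stabilization was measured in C2C12 myoblasts or myotubes stably transfected with a CMV-driven LacZ construct, using the FDG β-gal assay. Compounds were tested in dose-response at 0.5, 1, 5, 10, 20 and 40 μM, with two replicates per point.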

SMILES strings stand for the structures.

Take `CCN(C(=O)c1ccc(S(=O)(=O)N(C)C)cc1)C(C)C(=O)Nc1ccc(C)cc1` (stereo not drawn) [MLS001170856-01]: the “CMV-LACZ in Myotubes, signal relative to DMSO” value in experiment [1] (0.5 uM) was 1.1095; in experiment [1] (1 uM), 0.9105; in experiment [1] (5 uM), 1.0074; in experiment [1] (10 uM) it was 1.0562; in experiment [1] (20 uM), 1.1518; in experiment [1] (40 uM), 0.8753. The “Burkin Assay in Myotubes, α7 integrin LacZ reporter signal relative to DMSO” value stood at 0.8296 in experiment [2] (0.5 uM); 0.7436 in experiment [2] (1 uM); 0.91 in experiment [2] (5 uM); 1.064 in experiment [2] (10 uM); 0.7763 in experiment [2] (20 uM); 1.029 in experiment [2] (40 uM). Also, the “Burkin Assay in Myoblasts, signal relative to DMSO” value was 0.95 in experiment [3] (0.5 uM); 0.8651 in experiment [3] (1 uM); 0.9744 in experiment [3] (5 uM); 1.244 in experiment [3] (10 uM); 0.9217 in experiment [3] (20 uM); 0.7133 in experiment [3] (40 uM). Moreover, the “CMV-LACZ in Myoblasts (β-galactosidase activity relative to DMSO)” value in experiment [4] (0.5 uM) was 0.7337; in experiment [4] (1 uM), 0.9857; in experiment [4] (5 uM) it was 0.7938; in experiment [4] (10 uM), 1.0004; in experiment [4] (20 uM), 0.8881; in experiment [4] (40 uM) it was 0.8389.
On to `COC(=O)c1cc(S(=O)(=O)NCC2CCN(Cc3ccc(Cl)cc3)CC2)cn1C` [MLS001095033-01], for which the “CMV-LACZ in Myotubes, signal relative to DMSO” value in experiment [1] (0.5 uM) came out at 1.2895; in experiment [1] (1 uM), 1.0867; in experiment [1] (5 uM) it was 1.0230; in experiment [1] (10 uM), 1.0031; in experiment [1] (20 uM), 1.0326; in experiment [1] (40 uM), 1.0358. Moreover, the “Burkin Assay in Myotubes, α7 integrin LacZ reporter signal relative to DMSO” value in experiment [2] (0.5 uM) worked out at 0.9959; in experiment [2] (1 uM), 0.9488; in experiment [2] (5 uM), 0.944; in experiment [2] (10 uM), 0.9298; in experiment [2] (20 uM) it was 0.8938; in experiment [2] (40 uM), 0.9158. Besides, the “Burkin Assay in Myoblasts, signal relative to DMSO” value in experiment [3] (0.5 uM) is 1.281; in experiment [3] (1 uM), 1.186; in experiment [3] (5 uM), 0.9632; in experiment [3] (10 uM) it was 0.9614; in experiment [3] (20 uM) it was 1.125; in experiment [3] (40 uM), 1.0618. In addition, the “CMV-LACZ in Myoblasts (β-galactosidase activity relative to DMSO)” value came out at 0.9488 in experiment [4] (0.5 uM); 0.9179 in experiment [4] (1 uM); 0.9043 in experiment [4] (5 uM); 1.0269 in experiment [4] (10 uM); 0.9359 in experiment [4] (20 uM); 0.9811 in experiment [4] (40 uM).
Regarding `O=C(NCc1ccccc1)C(c1c(F)cccc1Cl)N(C(=O)c1csnn1)C1CC1` (stereo not drawn) [MLS001221908-01], the “CMV-LACZ in Myotubes, signal relative to DMSO” value in experiment [1] (0.5 uM) worked out at 0.8562; in experiment [1] (1 uM), 0.9171; in experiment [1] (5 uM), 0.9745; in experiment [1] (10 uM) it was 1.1838; in experiment [1] (20 uM) it was 1.0770; in experiment [1] (40 uM), 0.8850. In addition, the “Burkin Assay in Myotubes, α7 integrin LacZ reporter signal relative to DMSO” value in experiment [2] (0.5 uM) was 1.197; in experiment [2] (1 uM), 0.9589; in experiment [2] (5 uM) it was 0.889; in experiment [2] (10 uM), 0.9693; in experiment [2] (20 uM), 0.818; in experiment [2] (40 uM), 0.7406. Besides, the “Burkin Assay in Myoblasts, signal relative to DMSO” value in experiment [3] (0.5 uM) is reported as 1.051; in experiment [3] (1 uM), 0.9531; in experiment [3] (5 uM) it was 0.9306; in experiment [3] (10 uM) it was 0.8812; in experiment [3] (20 uM) it was 1.433; in experiment [3] (40 uM), 0.5684. Besides, the “CMV-LACZ in Myoblasts (β-galactosidase activity relative to DMSO)” value in experiment [4] (0.5 uM) worked out at 0.9663; in experiment [4] (1 uM), 0.7607; in experiment [4] (5 uM), 0.9357; in experiment [4] (10 uM), 0.7908; in experiment [4] (20 uM), 0.9726; in experiment [4] (40 uM), 0.6789.
As to `CC(=O)C1=C(C)Nc2ncnn2C1c1ccc(C)cc1` (stereo not drawn) [MLS001197779-01], the “CMV-LACZ in Myotubes, signal relative to DMSO” value in experiment [1] (0.5 uM) is on record as 1.1286; in experiment [1] (1 uM) it was 1.1705; in experiment [1] (5 uM), 1.0456; in experiment [1] (10 uM), 1.0983; in experiment [1] (20 uM), 1.0630; in experiment [1] (40 uM), 1.0540. Further, the “Burkin Assay in Myotubes, α7 integrin LacZ reporter signal relative to DMSO” value in experiment [2] (0.5 uM) is listed as 1.038; in experiment [2] (1 uM), 0.961; in experiment [2] (5 uM), 1.102; in experiment [2] (10 uM), 0.9249; in experiment [2] (20 uM) it was 0.8237; in experiment [2] (40 uM), 0.913. For the same molecule, the “Burkin Assay in Myoblasts, signal relative to DMSO” value was determined as 0.9161 in experiment [3] (0.5 uM); 1.0032 in experiment [3] (1 uM); 1.281 in experiment [3] (5 uM); 0.9869 in experiment [3] (10 uM); 0.8467 in experiment [3] (20 uM); 0.753 in experiment [3] (40 uM). The “CMV-LACZ in Myoblasts (β-galactosidase activity relative to DMSO)” value in experiment [4] (0.5 uM) is recorded as 0.8987; in experiment [4] (1 uM) it was 1.2563; in experiment [4] (5 uM), 0.7604; in experiment [4] (10 uM), 0.6490; in experiment [4] (20 uM) it was 0.9846; in experiment [4] (40 uM), 1.1267.
Regarding `CC1(C)Cc2c(c(N3CCOCC3)nc3sc(C(=O)Nc4ccccc4)c(N)c23)CO1` [MLS001075922-01], the “CMV-LACZ in Myotubes, signal relative to DMSO” value in experiment [1] (0.5 uM) is 1.0222; in experiment [1] (1 uM), 1.0533; in experiment [1] (5 uM), 1.2947; in experiment [1] (10 uM), 1.2173; in experiment [1] (20 uM), 1.0282; in experiment [1] (40 uM), 0.8388. The “Burkin Assay in Myotubes, α7 integrin LacZ reporter signal relative to DMSO” value in experiment [2] (0.5 uM) is 1.292; in experiment [2] (1 uM), 1.143; in experiment [2] (5 uM) it was 0.6556; in experiment [2] (10 uM) it was 0.629; in experiment [2] (20 uM), 1.067; in experiment [2] (40 uM), 0.8243. For the same molecule, the “Burkin Assay in Myoblasts, signal relative to DMSO” value in experiment [3] (0.5 uM) was found to be 1.2085; in experiment [3] (1 uM), 1.292; in experiment [3] (5 uM), 0.6039; in experiment [3] (10 uM) it was 0.2869; in experiment [3] (20 uM) it was 0.5678; in experiment [3] (40 uM) it was 0.6464. Also, the “CMV-LACZ in Myoblasts (β-galactosidase activity relative to DMSO)” value in experiment [4] (0.5 uM) is reported as 0.9434; in experiment [4] (1 uM), 1.3028; in experiment [4] (5 uM), 1.6332; in experiment [4] (10 uM), 1.2361; in experiment [4] (20 uM) it was 0.9881; in experiment [4] (40 uM) it was 1.3037.
